This is an account of results in patent US20100297265A1, “Optimal compositions and methods for treating oral disease and pain” (priority 2009, published 2010).

The test system of data set [1] is Streptococcus mutans strain ATCC 25175. Briefly: S. mutans growth in TS media with cesium/sodium salts (OD 600 nm, doubling time). To be noted: for inhibition of culture growth rates: nitrate salt, tested at 25-100 mM; for colonies on TS-agar plate: 50 μL of 100 mM salt culture spread onto TS-agar plate; for Minimum Inhibitory Concentration (MIC): Lineweaver-Burke plot of growth data. In kind it is cell-based. The protocol:
(§1) Streptococcus mutans strain ATCC 25175 was obtained from American Type Culture Collection in the freeze-dried state. Cells were rehydrated in a trypticase soy-yeast extract media (30 g trypticase soy broth and 3 g yeast extract per liter mqH2O; TS media). The bacteria were grown overnight at 37° C., shaking at 60 rpm in 50 mL broth. For routine propagation of the strain, S. mutans was grown on trypticase soy agar plates, TS media with 15 g/L agar. Escherichia coli strain K12 was grown as a representative enteric bacteria in LB broth (10 g tryptone, 5 g yeast extract and 10 g NaCl per liter mqH2O).
To assess the toxicity of cesium chloride, growth rates were calculated from cultures grown in the absence and presence of cesium chloride with sodium chloride added to controls to maintain consistent ionic strength. The first growth curves conducted used duplicate cultures of 50 mL TS media in 125 mL flasks with foam stoppers. The media was inoculated with 1 mL of the starter culture (2% inoculum) and the optical density was measured at 600 nm. Two conditions were initially tested: 100 mM CsCl and 100 mM NaCl.
An increasing gradient of CsCl concentrations was examined to see how bacterial growth rate varies with salt concentration. Concentrations of 0 mM, 5 mM, 10 mM, 25 mM, 50 mM, 75 mM and 100 mM CsCl were tested; NaCl was used to counter balance control in order to maintain constant ion concentrations.
Additional cesium salts were used to assess alternate inhibitors of S. mutans cultures. Cesium salts of hydroxide, formate, bicarbonate, sulfate, nitrate, fluoride, and iodide were obtained from Fisher Scientific. Growth rates of S. mutans were monitored with 0 mM, 25 mM, 50 mM, and 100 mM cesium salt in TS broth. Control cultures were grown with sodium hydroxide, bicarbonate, nitrate, and sulfate at 0 mM, 25 mM, 50 mM, and 100 mM.
To investigate the inhibition of S. mutans by cesium chloride, growth in the presence and absence of CsCl was compared. Ions were balanced with NaCl in all cultures to a final concentration of 100 mM of supplemental cations added to the media (i.e., for 75 mM CsCl, 25 mM NaCl was added to bring the total concentration of supplemental cation to 100 mM). All data is presented in optical density absorbance measurements at 600 nm, or doubling times (the length of time it takes for a culture to double in time).

In data set [2] the test system is Escherichia coli strain K12. Briefly: E. coli K12 growth in LB broth with CsCl. In kind it is cell-based. The method, then:
as §1
An increasing gradient of CsCl concentrations was examined to see how bacterial growth rate varies with salt concentration. Concentrations of 0 mM, 5 mM, 10 mM, 25 mM, 50 mM, 75 mM and 100 mM CsCl were tested; NaCl was used to counter balance control in order to maintain constant ion concentrations. Additional gradient growth curves with 0 mM, 20 mM, 30 mM, 40 mM and 50 mM CsCl were conducted to refine the inhibition profile of S. mutans.

Data set [3] concerns E. coli potassium channel mutants (Kch JW1242, TrkG JW1358, TrkH JW5576, KdpA JW0686). Briefly: Growth of E. coli potassium channel mutants with CsCl. In kind it is cell-based, Escherichia coli. The protocol:
In order to better understand the mechanism of inhibition, the following potassium channel mutants of E. coli from the Keio collection were obtained from the Coli Genetic Stock Center at Yale University: Kch mutant JW 1242-1, TrkG mutant JW 1358-1, TrkH mutant JW 5576-1, and KdpA mutant JW686-5. Mutant E. coli strains were grown in LB broth in the presence or absence of CsCl (either 0 mM, 50 mM, or 100 mM CsCl) to assess the role of potassium transport channels in cesium inhibition.
It was hypothesized that, as a larger monovalent cation, cesium could block potassium channels, thereby blocking the uptake of potassium into the cell and retarding cell growth. Strains of E. coli with non-essential genes knocked out were acquired from the Yale Coli Genetic Stock Center. Four mutants were chosen: JW0686, a KdpA mutant, a cesium inducible potassium transporting ATPase; JW1242, a Kch mutant, a conductive potassium transporter; JW1358, a TrkG mutant, a transmembrane component of the Trk potassium uptake system; JW5576, a TrkH mutant, a transmembrane component of the Trk potassium uptake system. TrkG and TrkH determine the specificity of the Trk protein. Because of their similarity (i.e., 41% nucleotide homology), Trk can be made with either one of the two subunits if the other is not available, although TrkG is preferred.

Data set [4] relates to S. mutans. Briefly: S. mutans growth with CsCl under differing pH conditions. In kind it is cell-based, Streptococcus mutans.
Data set [5] concerns S. mutans. Briefly: Spiking of exponentially growing S. mutans cultures. In kind it is cell-based, Streptococcus mutans. To be noted: for doubling time: culture spiked with 100 mM salt in early exponential phase. The method, then:
To determine how CsCl affects exponentially growing S. mutans cells, cultures were spiked with CsCl. TS media was prepared as in previous experiments and cultures were started with 0.2% inoculum. The cultures were grown for three and a half hours while monitoring the growth with the OD at 600 nm. When the cultures were in early exponential growth phase, they were spiked with 100 mM CsCl, 100 mM NaCl, or Listerine mouthwash in a 1:10 or 1:100 dilution in TS media.

In data set [6] the test system is S. mutans. To be noted: previous study, cited from earlier work.
Where [7] appears, read: 0, 25, 50 and 100 mM cesium salt.

Read-outs that look alike come from different tables or passages of the source.

Turning to `[Cs+].[F-]` [Cesium fluoride], the “inhibition of S. mutans growth” value in data set [1] (setting [7]) is reported as “little to no inhibition”.
For `O=C[O-].[Cs+]` [Cesium formate], the “inhibition of S. mutans growth” value in data set [1] (setting [7]) was “little to no inhibition”.
For the compound `[Cs+].[OH-]` [Cesium hydroxide], the “inhibition of S. mutans growth” value in data set [1] (50 mM or greater, due to increase in pH) is reported as “inhibited cultures completely”. Further, the “pH of the media” value reads like this: (50 mM) 9.5; (100 mM) 12.5.
For `[Cs+].[I-]` [Cesium iodide], the “inhibition of S. mutans growth” value in data set [1] (setting [7]) is given as “little to no inhibition”.
Consider `O=[N+]([O-])[O-].[Cs+]` [Cesium nitrate], for which the “inhibition of culture growth rates” value in data set [1] is given as “roughly 30%”.
With `O=S(=O)([O-])[O-].[Cs+].[Cs+]` [Cesium sulfate], the “inhibition of S. mutans growth” value in data set [1] (concentrations of 50 mM or below) is on record as “not inhibitory”.
Regarding `[Cl-].[Cs+]` [CsCl, cesium chloride], the maximum yield in data set [1] (0, 5, 10 and 25 mM CsCl cultures, OD 600 nm) turned out to be 0.9 OD units. The doubling time came to 1.06 h in data set [1] (5 mM CsCl, NaCl added to 100 mM total supplemental cation); 0.94 h in data set [1] (10 mM CsCl, NaCl added to 100 mM total supplemental cation); 1.17 h in data set [1] (25 mM CsCl, NaCl added to 100 mM total supplemental cation); 1.54 h in data set [1] (50 mM CsCl, NaCl added to 100 mM total supplemental cation); 2.37 h in data set [1] (75 mM CsCl, NaCl added to 100 mM total supplemental cation); 4.17 h in data set [1] (100 mM CsCl). Besides, the doubling time result in data set [2] (all CsCl concentrations tested (0-100 mM)) was “approximately 1 h”; in the data set on S. mutans [4] (25 mM CsCl, pH 7.00) it was 52 min; with S. mutans [4] (25 mM CsCl, pH 8.33), 64 min; in the data set with S. mutans [5], 2.49 h. Further, the “growth of S. mutans” value in data set [1] (100 mM CsCl culture) is recorded as “almost completely inhibited”. Also, the “colonies on TS-agar plate” value in data set [1] is listed as “thin translucent colonies after a week”. Besides, the “Minimum Inhibitory Concentration (MIC)” value in data set [1] was 61.2 mM. For the same compound, the “effect on growth rate” value in data set [2] (concentrations as high as 100 mM CsCl, LB media) is “minimal effect”. Moreover, in data set [3] (0, 50 or 100 mM CsCl in LB broth), the inhibition of mutants entry is on record as “some inhibition”. The “reduction in growth rate” value in data set [3] (100 mM CsCl vs control with 100 mM NaCl, most inhibited cultures) is on record as “roughly one third”. In addition, the inhibition result in the data set on S. mutans [4] (25 mM CsCl, pH 7.25) is listed as “No inhibition”. Moreover, the “increase of doubling time” value with S. mutans [4] (25 mM CsCl, pH 8.33 vs pH 7.00) was 25%. Also, the “inhibition relative to neutral pH” value in the data set on S. mutans [4] (100 mM, pH 8.33) is recorded as “more inhibitory”. Besides, the “inhibition relative to neutral or basic pH” value with S. mutans [4] (pH 4.50) is reported as “less inhibitory”. Also, the “inhibition relative to other pH tested” value in the data set with S. mutans [4] (pH 8.33) is “strongest inhibition”.
As to `[Cl-].[Na+]` [NaCl, sodium chloride], the doubling time entry in data set [1] (100 mM NaCl (presented as 0 mM CsCl)) is “roughly 1 hour”; in the data set on S. mutans [5], 1.21 h. For the same compound, the “colonies on TS-agar plate” value in data set [1] is listed as “small opaque white colonies overnight”. In the data set on S. mutans [5] (100 mM spiked control), this compound showed a yield of 0.9 OD units.
As to `[Na+].[OH-]` [NaOH, sodium hydroxide], the “pH of the media” value is given as 9.5 (50 mM) and 12.5 (100 mM).
`O=C([O-])O.[Na+]` [sodium bicarbonate]: the results for the completely inhibitory concentration in the data set with S. mutans [6] (8% w/v converted) and in the data set on S. mutans [6] were around 950 mM and 8 % w/v, respectively.
Take `O=[N+]([O-])[O-].[Na+]` [sodium nitrate]: the “inhibition of culture growth rates” value in data set [1] is on record as “roughly 30%”.
As to cesium bicarbonate, the “inhibition of S. mutans growth” value is recorded as “increased inhibition” in data set [1] (50 mM) and “complete inhibition” in data set [1] (100 mM). In addition, in data set [1], the “Minimum Inhibitory Concentration (MIC)” value is on record as 40.5 mM. The figures for the “inhibition compared with sodium bicarbonate control” value in data set [1] (concentrations less than 45 mM) and in data set [1] (concentrations of 45 mM or greater) were “not significantly different” and “inhibited S. mutans growth more than the control cultures”, respectively. Moreover, the “MIC lower than the MIC for CsCl by” value in data set [1] (difference of MIC values) is recorded as “more than 20 mM”.
